# Measured values from patent US20180244611A1, “Modulators of the Cystic Fibrosis Transmembrane Conductance Regulator Protein and Methods of Use” (AbbVie S.à.r.l., priority 2017, published 2018).
# How the values were obtained:
# F508delCFTR [1] = target: T1, F508delCFTR (Homo sapiens, UniProt P13569, DEL508-508); experiment: Cell Surface Expression-Horse Radish Peroxidase (CSE-HRP) assay, test compound without co-corrector; assay type: cell-based; conditions: for Emax: maximum at any tested concentration, normalized to positive control, without co-corrector; for EC50: test compound without co-corrector;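 for Emax: percent of on-plate 2 µM positive control corrector response over DMSO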
# T1 construct: expressed in transfected cells; host or cells: CFBE41o- human lung-derived epithelial cells (CFBE41o-F508delCFTR-HRP), doxycycline-inducible
# In short: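 Compound without co-corrector was tested at eight 3-fold concentrations, top 20 μM, for 18-24 h at 33° C on doxycycline-induced (0.5 μg/mL, 72 h) CFBE41o- F508delCFTR-HRP cells. After DPBS washes, luminol luminescence gave % activity relative to on-plate positive control minus DMSO; EC50 came from triplicate-plate sigmoidal fitting.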
# F508delCFTR [2] = target: T1, F508delCFTR; experiment: Cell Surface Expression-Horse Radish Peroxidase (CSE-HRP) assay, test compound with co-corrector; assay type: cell-based; conditions: with 2 μM co-corrector; for Maximum % activity (with co-corrector): maximum at any tested concentration, normalized to positive control;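 for Maximum % activity (with co-corrector): percent of 2 µM positive control corrector over DMSO; co-corrector is that same compound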
# In short: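 Surface-expression read-out: luminol luminescence from an HRP tag in the fourth exofacial loop of F508delCFTR, in doxycycline-induced (0.5 μg/mL, 72 h) CFBE41o- cells. Compound plus 2 μM co-corrector added for 18-24 h at 33° C., 8-point 3-fold series up to 20 μM. EC50 from a sigmoidal fit with variable Hill slope, normalised to positive control, triplicate plates.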
# T1 sequence (P13569 with tags, fused parts or gaps DEL508-508): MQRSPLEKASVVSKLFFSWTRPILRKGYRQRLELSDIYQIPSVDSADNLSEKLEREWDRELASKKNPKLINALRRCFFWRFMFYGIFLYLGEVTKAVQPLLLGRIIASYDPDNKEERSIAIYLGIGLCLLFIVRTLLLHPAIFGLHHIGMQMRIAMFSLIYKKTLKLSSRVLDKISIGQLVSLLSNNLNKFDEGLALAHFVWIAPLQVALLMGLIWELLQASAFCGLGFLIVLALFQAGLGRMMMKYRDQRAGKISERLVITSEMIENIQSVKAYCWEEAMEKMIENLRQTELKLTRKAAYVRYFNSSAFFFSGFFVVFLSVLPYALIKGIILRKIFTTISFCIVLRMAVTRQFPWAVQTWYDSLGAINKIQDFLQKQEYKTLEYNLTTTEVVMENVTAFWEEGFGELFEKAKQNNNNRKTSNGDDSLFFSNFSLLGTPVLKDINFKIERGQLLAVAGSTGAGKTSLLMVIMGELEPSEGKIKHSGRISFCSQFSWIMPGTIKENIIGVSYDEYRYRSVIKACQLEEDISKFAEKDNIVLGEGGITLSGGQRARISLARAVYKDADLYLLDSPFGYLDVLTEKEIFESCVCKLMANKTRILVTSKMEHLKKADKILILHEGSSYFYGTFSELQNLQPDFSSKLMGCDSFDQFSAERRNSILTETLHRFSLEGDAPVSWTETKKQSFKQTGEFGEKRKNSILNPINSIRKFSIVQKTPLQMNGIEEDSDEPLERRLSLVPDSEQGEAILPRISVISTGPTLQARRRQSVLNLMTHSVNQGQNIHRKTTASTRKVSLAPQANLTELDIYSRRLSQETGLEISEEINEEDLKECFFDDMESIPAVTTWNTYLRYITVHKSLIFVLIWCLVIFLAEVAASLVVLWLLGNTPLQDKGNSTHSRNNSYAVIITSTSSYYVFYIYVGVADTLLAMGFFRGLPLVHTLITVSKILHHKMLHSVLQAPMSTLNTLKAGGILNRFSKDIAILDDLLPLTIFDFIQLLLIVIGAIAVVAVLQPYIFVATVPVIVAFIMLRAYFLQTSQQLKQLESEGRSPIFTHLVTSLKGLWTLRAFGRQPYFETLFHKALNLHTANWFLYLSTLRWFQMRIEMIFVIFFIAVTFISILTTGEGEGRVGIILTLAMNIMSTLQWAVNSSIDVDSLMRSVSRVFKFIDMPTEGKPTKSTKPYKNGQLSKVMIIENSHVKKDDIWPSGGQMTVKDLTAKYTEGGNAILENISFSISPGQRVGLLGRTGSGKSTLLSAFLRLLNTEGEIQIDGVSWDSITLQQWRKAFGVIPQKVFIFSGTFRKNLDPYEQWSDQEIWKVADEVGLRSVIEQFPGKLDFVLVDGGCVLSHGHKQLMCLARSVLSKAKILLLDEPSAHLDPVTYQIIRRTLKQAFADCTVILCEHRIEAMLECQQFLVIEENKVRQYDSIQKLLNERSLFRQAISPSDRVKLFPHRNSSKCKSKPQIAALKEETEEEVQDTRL
SMILES,Emax (F508delCFTR [1]) [%],EC50 (F508delCFTR [1]) [µM],Maximum % activity (with co-corrector) (F508delCFTR [2]),EC50 (F508delCFTR [2]) [µM]
O=C(NS(=O)(=O)c1cccc2ccccc12)C1CCCc2c(OC3CCCC3)ccc(Br)c21 (stereo not drawn) [II-88],50 to 150,3 to 10,+++ (≥350),< 3
O=C(NS(=O)(=O)c1cccc2ccccc12)C1CCCc2c(OCc3ccccc3)ccc(Br)c21 (stereo not drawn) [II-89],50 to 150,3 to 10,++ (≥150 and <350),3 to 10
O=C(C1CCCc2c(OCc3ccccc3)ccc(Br)c21)N(Cc1ccccc1)S(=O)(=O)c1cccc2ccccc12 (stereo not drawn) [II-90],< 50,≥ 10,+ (<150),≥ 10
O=C(NS(=O)(=O)c1cccc2ccccc12)C1CCCc2c(OC3COC3)ccc(Br)c21 (stereo not drawn) [II-91],50 to 150,3 to 10,+++ (≥350),< 3
O=C(NS(=O)(=O)c1cccc2ccccc12)C1CCCc2c(OC3CCOCC3)ccc(Br)c21 (stereo not drawn) [II-92],< 50,3 to 10,++ (≥150 and <350),< 3
CC(C)(O)COc1ccc(Br)c2c1CCCC2C(=O)NS(=O)(=O)c1cccc2ccccc12 (stereo not drawn) [II-93],< 50,≥ 10,+ (<150),< 3
COc1cc2c(c(OC)c1)C(C(=O)NS(=O)(=O)c1cccc3ccccc13)CCC2 (stereo not drawn) [II-94],≥ 150,3 to 10,+++ (≥350),< 3
COc1ccc(/C=C/c2ccccc2)c2c1CCCC2C(=O)NS(=O)(=O)c1cccc2ccccc12 (stereo not drawn) [II-96],≥ 150,< 3,+++ (≥350),< 3
COc1ccc(-c2cccc3c2OC(F)(F)O3)c2c1CCCC2C(=O)NS(=O)(=O)c1cccc2ccccc12 (stereo not drawn) [II-97],≥ 150,< 3,+++ (≥350),< 3
COc1ccc(-c2ccc(C)cc2F)c2c1CCCC2C(=O)NS(=O)(=O)c1cccc2ccccc12 (stereo not drawn) [II-98],≥ 150,< 3,+++ (≥350),< 3
COc1ccc(-c2ccccc2Oc2ccccc2)c2c1CCCC2C(=O)NS(=O)(=O)c1cccc2ccccc12 (stereo not drawn) [II-99],≥ 150,< 3,+++ (≥350),< 3
CCC1(C(=O)NS(=O)(=O)c2cccc(Br)c2C)CCc2c(Cl)cccc21 (stereo not drawn) [II-100],50 to 150,3 to 10,+++ (≥350),3 to 10
CCC1(C(=O)NS(=O)(=O)c2cccc(F)c2C)CCc2c(Cl)cccc21 (stereo not drawn) [II-101],< 50,< 3,++ (≥150 and <350),< 3
CCC1(C(=O)NS(=O)(=O)c2ccccc2COC)CCc2c(Cl)cccc21 (stereo not drawn) [II-102],< 50,3 to 10,++ (≥150 and <350),< 3
CCC1(C(=O)NS(=O)(=O)c2cccc(F)c2F)CCc2c(Cl)cccc21 (stereo not drawn) [II-103],< 50,≥ 10,+ (<150),< 3
CCC1(C(=O)NS(=O)(=O)c2ccccc2OCC(F)F)CCc2c(Cl)cccc21 (stereo not drawn) [II-104],< 50,< 3,++ (≥150 and <350),< 3
CCC1(C(=O)NS(=O)(=O)c2cccc3nccnc23)CCc2c(Cl)cccc21 (stereo not drawn) [II-105],< 50,≥ 10,+ (<150),< 3
CCC1(C(=O)NS(=O)(=O)c2cccc(Cl)c2F)CCc2c(Cl)cccc21 (stereo not drawn) [II-106],< 50,≥ 10,++ (≥150 and <350),< 3
CCC1(C(=O)NS(=O)(=O)c2cccc(Cl)c2Cl)CCc2c(Cl)cccc21 (stereo not drawn) [II-107],< 50,< 3,++ (≥150 and <350),< 3
CCC1(C(=O)NS(=O)(=O)c2cn(C)c3ccccc23)CCc2c(Cl)cccc21 (stereo not drawn) [II-108],50 to 150,3 to 10,+++ (≥350),< 3
COc1ccc(CCC2OCCCO2)c2c1C(C(=O)NS(=O)(=O)c1cccc3ccccc13)CCC2 (stereo not drawn) [II-109],≥ 150,3 to 10,+++ (≥350),3 to 10

SMILES,Emax (F508delCFTR [1]) [%],EC50 (F508delCFTR [1]) [µM],Maximum % activity (with co-corrector) (F508delCFTR [2]),EC50 (F508delCFTR [2]) [µM]
COc1ccc(C#N)c2c1C(C(=O)NS(=O)(=O)c1cccc3ccccc13)CC2 (stereo not drawn) [II-110],≥ 150,3 to 10,+++ (≥350),< 3
COc1ccc(C#N)c2c1C(C(=O)NS(=O)(=O)c1cccc3ccccc13)CCC2 (stereo not drawn) [II-111],≥ 150,3 to 10,+++ (≥350),< 3
CCC1(C(=O)NS(=O)(=O)c2cccc(C3CCC3)c2C)CCc2c(Cl)cccc21 (stereo not drawn) [II-112],< 50,3 to 10,++ (≥150 and <350),< 3
CCC1(C(=O)NS(=O)(=O)c2cccc3cnccc23)CCc2c(Cl)cccc21 (stereo not drawn) [II-113],≥ 150,3 to 10,+++ (≥350),< 3
COc1cccc2c1C(C(=O)NS(=O)(=O)c1cccc3ccccc13)C2 (stereo not drawn) [II-114],≥ 150,3 to 10,+++ (≥350),3 to 10
COc1ccc(Br)c2c1C(C(=O)NS(=O)(=O)c1cccc3cccnc13)CC2 (stereo not drawn) [II-116],≥ 150,3 to 10,+++ (≥350),3 to 10
COc1ccc(Br)c2c1C(C(=O)NS(=O)(=O)c1ccc(F)c3ncccc13)CC2 (stereo not drawn) [II-117],≥ 150,3 to 10,+++ (≥350),< 3
CCC1(C(=O)NS(=O)(=O)c2cccc3ccccc23)Cc2cccc(OC)c21 (stereo not drawn) [II-118],≥ 150,3 to 10,+++ (≥350),< 3
COc1ccc(-c2cccc(OC(F)(F)F)c2)c2c1C(C(=O)NS(=O)(=O)c1cccc3ccccc13)CCC2 (stereo not drawn) [II-119],≥ 150,3 to 10,+++ (≥350),3 to 10
COc1ccc(/C=C/c2ccccc2)c2c1C(C(=O)NS(=O)(=O)c1cccc3ccccc13)CCC2 (stereo not drawn) [II-120],< 50,3 to 10,++ (≥150 and <350),3 to 10
COc1ccc(C2=CCOCC2)c2c1C(C(=O)NS(=O)(=O)c1cccc3ccccc13)CCC2 (stereo not drawn) [II-121],≥ 150,3 to 10,+++ (≥350),< 3
COc1ccc(-c2ccc(C)nc2)c2c1CCCC2C(=O)NS(=O)(=O)c1cccc2ccccc12 (stereo not drawn) [II-122],≥ 150,3 to 10,+++ (≥350),< 3
CCOc1ccc2c(S(=O)(=O)NC(=O)C3CCc4c(Br)ccc(OC)c43)cccc2n1 (stereo not drawn) [II-123],≥ 150,3 to 10,+++ (≥350),3 to 10
COc1ccc(N2CCCC2)c2c1C(C(=O)NS(=O)(=O)c1cccc3ccccc13)CCC2 (stereo not drawn) [II-124],≥ 150,< 3,+++ (≥350),< 3
CCC1(C(=O)NS(=O)(=O)c2cccc(N3CCCCC3)c2C)CCc2c(Cl)cccc21 (stereo not drawn) [II-125],50 to 150,3 to 10,+++ (≥350),3 to 10
CCC1(C(=O)NS(=O)(=O)c2cccc(N3CC(F)(F)C3)c2C)CCc2c(Cl)cccc21 (stereo not drawn) [II-126],50 to 150,3 to 10,+++ (≥350),3 to 10
CCC1(C(=O)NS(=O)(=O)c2cccc(N3CCC(F)(F)C3)c2C)CCc2c(Cl)cccc21 (stereo not drawn) [II-127],50 to 150,3 to 10,+++ (≥350),< 3
COc1ccc(-c2ccc(C(F)(F)F)nc2)c2c1CCCC2C(=O)NS(=O)(=O)c1cccc2ccccc12 (stereo not drawn) [II-129],≥ 150,< 3,+++ (≥350),< 3
COc1ccc(C2=CCOCC2)c2c1CCCC2C(=O)NS(=O)(=O)c1cccc2ccccc12 (stereo not drawn) [II-130],≥ 150,< 3,+++ (≥350),< 3
COc1ccc(-c2ccc(C3CC3)nc2)c2c1CCCC2C(=O)NS(=O)(=O)c1cccc2ccccc12 (stereo not drawn) [II-131],≥ 150,< 3,+++ (≥350),< 3
COc1ccc(Br)c2c1C(C(=O)NS(=O)(=O)c1cccc3nc(C(C)C)ccc13)CC2 (stereo not drawn) [II-132],≥ 150,< 3,+++ (≥350),< 3
